Measured values taken from patent US20250188092A1, “RIFAMYCIN ANALOGS” (THE REGENTS OF THE UNIVERSITY OF MICHIGAN, priority 2021, published 2025).
In brackets after ≈: the same amount, converted by molar mass. Like-named read-outs stand apart in the source and are kept apart here.

System: non-replicating cultures of M. tuberculosis H37Rv transformed with lux ABCDE
Test: microbe, parasite or virus in culture
Assay type: cell-based, Mycobacterium tuberculosis
Details: for MIC90 / MIC: ≥90% reduction in luminescence, read-out: MIC90 LORA; for MIC90 LORA/MABA: ratio of LORA MIC90 to MABA MIC90
[1] = Mycobacterium tuberculosis, H37RV

Row | SMILES | MIC90 [1] | MIC90 LORA Rel to RMP | MIC [1] | MIC90 LORA/MABA | MIC90
1 | CO[C@H]1/C=C/O[C@@]2(C)Oc3c(C)c(O)c4c(=O)c(c5oc6cc(N7CCN(CC(C)C)CC7)cc(OCc7ccc(CN8CCN(C(=O)CN9CCOCC9)CC8)cc7)c6nc-5c4c3C2=O)NC(=O)/C(C)=C\C=C\[C@H](C)[C@H](O)[C@@H](C)[C@@H](O)[C@@H](C)[C@H](OC(C)=O)[C@@H]1C [Compound 17d, (7S,9E,11S,12R,13S,14R,15R,16R,17S,18S,19E,21Z)-2,15,17-Trihydroxy-11-methoxy-3,7,12,14,16,18,22-heptamethyl-30-[4-(2-methylpropyl)piperazin-1-yl]-32-{[4-({4-[2-(morpholin-4-yl)acetyl]piperazin-1-yl}methyl)phenyl]methoxy}-6,23,37-trioxo-8,27,38-trioxa-24,34-diazahexacyclo[23.11.1.1^4,7.0^5,36.0^26,35.0^28,33]octatriaconta-1(36)2,4,9,19,21,25,28,30,32,34-undecaen-13-yl acetate] | < 0.016 µM |  |  |  | 
2 | CO[C@H]1/C=C/O[C@@]2(C)Oc3c(C)c(O)c4c(=O)c(c5oc6cccc(OCc7ccc(CN8CCN(C(=O)Cn9ccnc9)CC8)cc7)c6nc-5c4c3C2=O)NC(=O)/C(C)=C\C=C\[C@H](C)[C@H](O)[C@@H](C)[C@@H](O)[C@@H](C)[C@H](OC(C)=O)[C@@H]1C [Compound 16b, (7S,9E,11S,12R,13S,14R,15R,16R,17S,18S,19E,21Z)-2,15,17-Trihydroxy-32-{[4-({4-[2-(1H-imidazol-1-yl)acetyl]piperazin-1-yl}methyl)phenyl]methoxy}-11-methoxy-3,7,12,14,16,18,22-heptamethyl-6,23,37-trioxo-8,27,38-trioxa-24,34-diazahexacyclo[23.11.1.1^4,7.0^5,36.0^26,35.0^28,33]octatriaconta-1(36)2,4,9,19,21,25,28,30,32,34-undecaen-13-yl acetate] |  | 0.93 | 0.057 µM | 2.0 | 
3 | CO[C@H]1/C=C/O[C@@]2(C)Oc3c(C)c(O)c4c(=O)c(c5oc6cccc(OCCCCN7CCN(C(=O)OC(C)(C)C)CC7)c6nc-5c4c3C2=O)NC(=O)/C(C)=C\C=C\[C@H](C)[C@H](O)[C@@H](C)[C@@H](O)[C@@H](C)[C@H](OC(C)=O)[C@@H]1C [Compound 5c, Tert-Butyl 4-(4-{[(7S,9E,11S,12R,13S,14R,15R,16R,17S,18S,19E,21Z)-13-(acetyloxy)-2,15,17-trihydroxy-11-methoxy-3,7,12,14,16,18,22-heptamethyl-6,23,37-trioxo-8,27,38-trioxa-24,34-diazahexacyclo[23.11.1.1^4,7.0^5,36.0^26,35.0^28,33]octatriaconta-1(36)2,4,9,19,21,25,28(33)29,31,34-undecaen-32-yl]oxy}butyl)piperazine-1-carboxylate] |  | 0.22 | 0.058 µM (≈ 0.0604 µg/mL) | 2.4 | 
4 | CO[C@H]1/C=C/O[C@@]2(C)Oc3c(C)c(O)c4c(=O)c(c5oc6cccc(OCc7cccc(CN8CCN(C(C)=O)CC8)c7)c6nc-5c4c3C2=O)NC(=O)/C(C)=C\C=C\[C@H](C)[C@H](O)[C@@H](C)[C@@H](O)[C@@H](C)[C@H](OC(C)=O)[C@@H]1C [Compound 11c, (7S,9E,11S,12R,13S,14R,15R,16R,17S,18S,19E,21Z)-32-({3-[(4-Acetylpiperazin-1-yl)methyl]phenyl}methoxy)-2,15,17-trihydroxy-11-methoxy-3,7,12,14,16,18,22-heptamethyl-6,23,37-trioxo-8,27,38-trioxa-24,34-diazahexacyclo-[23.11.1.1^4,7.0^5,36.0^26,35.0^28,33]octatriaconta-1(36)2,4,9,19,21,25,28,30,32,34-undecaen-13-yl acetate] | 0.123 µM | 0.53 |  | 2.1 | 
5 | CO[C@H]1/C=C/O[C@@]2(C)Oc3c(C)c(O)c4c(=O)c(c5oc6cc(C=Nc7ccc(N8CCOCC8)cc7)cc(N7CCN(C)CC7)c6nc-5c4c3C2=O)NC(=O)/C(C)=C\C=C\[C@H](C)[C@H](O)[C@@H](C)[C@@H](O)[C@@H](C)[C@H](OC(C)=O)[C@@H]1C [Compound 32, (7S,9E,11S,12R,13S,14R,15R,16R,17S,18S,19E,21Z)-2,15,17-trihydroxy-11-methoxy-3,7,12,14,16,18,22-heptamethyl-32-(4-methylpiperazin-1-yl)-30-{N-[4-(morpholin-4-yl)phenyl]carboximidoyl}-6,23,37-trioxo-8,27,38-trioxa-24,34-diazahexacyclo[23.11.1.1^4,7.0^5,36.0^26,35.0^28,33]octatriaconta-1,3,5(36)9,19,21,25,28,30,32,34-undecaen-13-yl acetate] | 0.118 µM | 0.45 |  | 2.5 | 
6 | CO[C@H]1/C=C/O[C@@]2(C)Oc3c(C)c(O)c4c(=O)c(c5oc6cc(N7CCN(C(=O)c8cccc(-n9ccnc9)c8)CC7)cc(C)c6nc-5c4c3C2=O)NC(=O)/C(C)=C\C=C\[C@H](C)[C@H](O)[C@@H](C)[C@@H](O)[C@@H](C)[C@H](OC(C)=O)[C@@H]1C [Compound 29a, (7S,9E,11S,12R,13S,14R,15R,16R,17S,18S,19E,21Z)-2,15,17-Trihydroxy-30-{4-[3-(1H-imidazol-1-yl)benzoyl]piperazin-1-yl}-11-methoxy-3,7,12,14,16,18,22,32-octamethyl-6,23,37-trioxo-8,27,38-trioxa-24,34-diazahexacyclo[23.11.1.1^4,7.0^5,36.0^26,35.0^28,33]octatriaconta-1(36)2,4,9,19,21,25,28,30,32,34-undecaen-13-yl acetate] | 0.126 µM | 0.61 |  | 3.5 | 
7 | CO[C@H]1/C=C/O[C@@]2(C)Oc3c(C)c(O)c4c(=O)c(c5oc6cccc(OCCCCN7CCN(C)CC7)c6nc-5c4c3C2=O)NC(=O)/C(C)=C\C=C\[C@H](C)[C@H](O)[C@@H](C)[C@@H](O)[C@@H](C)[C@H](OC(C)=O)[C@@H]1C [Compound 5a, (7S,9E,11S,12R,13S,14R,15R,16R,17S,18S,19E,21Z)-2,15,17-Trihydroxy-11-methoxy-3,7,12,14,16,18,22-heptamethyl-32-[4-(4-methylpiperazin-1-yl)butoxy]-6,23,37-trioxo-8,27,38-trioxa-24,34-diazahexacyclo[23.11.1.1^4,7.0^5,36.0^26,35.0^28,33]octatriaconta-1(36)2,4,9,19,21,25,28(33)29,31,34-undecaen-13-yl acetate] |  | 0.57 | 0.186 µM | 2.0 | 
8 | CO[C@H]1/C=C/O[C@@]2(C)Oc3c(C)c(O)c4c(=O)c(c5oc6cc(N7CCN(C)CC7)cc(OCCCCN7CCN(C(=O)Cn8ccnc8)CC7)c6nc-5c4c3C2=O)NC(=O)/C(C)=C\C=C\[C@H](C)[C@H](O)[C@@H](C)[C@@H](O)[C@@H](C)[C@H](OC(C)=O)[C@@H]1C [Compound 6c, (7S,9E,11S,12R,13S,14R,15R,16R,17S,18S,19E,21Z)-2,15,17-Trihydroxy-32-(4-{4-[2-(1H-imidazol-1-yl)acetyl]piperazin-1-yl}butoxy)-11-methoxy-3,7,12,14,16,18,22-heptamethyl-30-(4-methylpiperazin-1-yl)-6,23,37-trioxo-8,27,38-trioxa-24,34-diazahexacyclo[23.11.1.1^4,7.0^5,36.0^26,35.0^28,33]octatriaconta-1(36)2,4,9,19,21,25,28(33)29,31,34-undecaen-13-yl acetate] |  | 0.14 | 0.021 µM | 0.5 | 
9 | CO[C@H]1/C=C/O[C@@]2(C)Oc3c(C)c(O)c4c(=O)c(c5oc6cc(N7CCN(CC(C)C)CC7)cc(OCCCCN7CCOCC7)c6nc-5c4c3C2=O)NC(=O)/C(C)=C\C=C\[C@H](C)[C@H](O)[C@@H](C)[C@@H](O)[C@@H](C)[C@H](OC(C)=O)[C@@H]1C [Compound 6a, (7S,9E,11S,12R,13S,14R,15R,16R,17S,18S,19E,21Z)-2,15,17-Trihydroxy-11-methoxy-3,7,12,14,16,18,22-heptamethyl-30-[4-(2-methylpropyl)piperazin-1-yl]-32-[4-(morpholin-4-yl)butoxy]-6,23,37-trioxo-8,27,38-trioxa-24,34-diazahexacyclo[23.11.1.1^4,7.0^5,36.0^26,35.0^28,33]octatriaconta-1(36)2,4,9,19,21,25,28(33)29,31,34-undecaen-13-yl acetate] |  | 0.07 | 0.186 µM | 2.0 | 
10 | CO[C@H]1/C=C/O[C@@]2(C)Oc3c(C)c(O)c4c(=O)c(c5oc6cc(N7CCN(CCCO[C@@H]8COc9nc([N+](=O)[O-])cn9C8)CC7)cc(C)c6nc-5c4c3C2=O)NC(=O)/C(C)=C\C=C\[C@H](C)[C@H](O)[C@@H](C)[C@@H](O)[C@@H](C)[C@H](OC(C)=O)[C@@H]1C [Compound 29d, (7S,9E,11S,12R,13S,14R,15R,16R,17S,18S,19E,21Z)-2,15,17-Trihydroxy-11-methoxy-3,7,12,14,16,18,22,32-octamethyl-30-[4-(3-{[(6S)-2-nitro-5H,6H,7H-imidazo[2,1-b][1,3]oxazin-6-yl]oxy}propyl)piperazin-1-yl]-6,23,37-trioxo-8,27,38-trioxa-24,34-diazahexacyclo[23.11.1.1^4,7.0^5,36.0^26,35.0^28,33]octatriaconta-1(36)2,4,9,19,21,25,28,30,32,34-undecaen-13-yl acetate] | 0.053 µM | 0.20 |  | 1.4 | 
11 | CO[C@H]1/C=C/O[C@@]2(C)Oc3c(C)c(O)c4c(=O)c(c5oc6cc(C=O)cc(N7CCN(C)CC7)c6nc-5c4c3C2=O)NC(=O)/C(C)=C\C=C\[C@H](C)[C@H](O)[C@@H](C)[C@@H](O)[C@@H](C)[C@H](OC(C)=O)[C@@H]1C [Compound 30b, (7S,9E,11S,12R,13S,14R,15R,16R,17S,18S,19E,21Z)-30-Formyl-2,15,17-trihydroxy-11-methoxy-3,7,12,14,16,18,22-heptamethyl-32-(4-methylpiperazin-1-yl)-6,23,37-trioxo-8,27,38-trioxa-24,34-diazahexacyclo[23.11.1.1^4,7.0^5,36.0^26,35.0^28,33]octatriaconta-1(36)2,4,9,19,21,25,28,30,32,34-undecaen-13-yl acetate] |  | 0.44 |  | 3.1 | 0.114 µM
